# Assay results reported in patent publication US8563713B2, “Antibodies specific to carbamazepine” (priority 2011, dated 2013).
# Tested on: antibody specific to carbamazepine
# Assay: Interference from other drugs in the carbamazepine ELISA assay
# Type: binding, rabbit
# Settings: chemical tested at 10.0 μg/ml; procedures of Example 4 (competitive ELISA); tested in duplicate
# Procedure: Production of the antibodies of the present disclosure was performed with conventional methods. In brief, the immunogen as prepared in Example 2 was diluted to 1.0 mg/ml in phosphate buffered saline (PBS). 1.0 ml of the immunogen solution was injected into rabbits with complete Freunds adjuvant. After 2-3 weeks, the animal was injected with 1.0 ml of the same immunogen solution with incomplete Freunds adjuvant. The same injection was repeated every other week until acceptable titer was obtained.
# The Carbamazepine ELISA was developed with the antibody generated from Example 3. This assay is a competitive micro-immunoassay for determination of carbamazepine in a fluid sample. Carbamazepine in the fluid sample and carbamazepine derivative linked with the enzyme (HRP)-conjugate compete for the finite sites of the antibody coated on the solid surface of the microwell. If little or no carbamazepine is present in the fluid sample, more enzyme labeled carbamazepine derivative will bind to the antibody on the solid surface. Conversely, if a large or a significant amount of carbamazepine is present in the fluid sample, less enzyme labeled carbamazepine derivative will bind to the antibody, producing less color signal. The absorbance produced is inversely proportional to the amount of carbamazepine in the fluid sample.
# Interference from other drugs was tested using 30 frequently used chemicals and medicines, at concentrations of 10.0 μg/ml.
# The samples were tested in duplicate, following the procedures used in Example 4. All 30 samples produced a negative test result. Thus, the immunoassay of the present disclosure is specific to carbamazepine.
row,Molecule,Equivalent Carbamazepine Conc. [µg/mL]
1,CN(C)CCCN1c2ccccc2CCc2ccccc21 [Imipramine],<0.1
2,CN[C@@H](C)Cc1ccccc1 [d-Methamphetamine],<0.1
3,NCCc1ccccc1 [beta-Phenylethylamine],<0.1
4,COc1ccc2cc([C@H](C)C(=O)O)ccc2c1 [Naproxen],<0.1
5,O=C(O)C1N=C(c2ccccc2)c2cc(Cl)ccc2NC1=O (centres unmarked) [Clorazepate],<0.1
6,Penicillin,<0.1
7,CC(C(=O)O)c1cccc(Oc2ccccc2)c1 (centres unmarked) [Fenoprofen],<0.1
8,Ecgonine,<0.1
9,CN1C(=O)CN=C(c2ccccc2)c2cc(Cl)ccc21 [Diazepam],<0.1
10,COc1ccc2c3c1O[C@H]1C(=O)CC[C@H]4[C@@H](C2)N(C)CC[C@]314 [Hydrocodone],<0.1
11,CCN(CC)CCOC(=O)c1ccc(N)cc1 [Procaine],<0.1
12,CC1(C)S[C@@H]2[C@H](NC(=O)[C@H](N)c3ccccc3)C(=O)N2[C@H]1C(=O)O [Ampicillin],<0.1
13,CC(C)Cc1ccc(C(C)C(=O)O)cc1 (centres unmarked) [Ibuprofen],<0.1
14,NC(=O)c1cccnc1 [Niacinamide],<0.1
15,Cn1c(=O)c2c(ncn2C)n(C)c1=O [Caffeine],<0.1
16,C=C[C@H]1C[N@@]2CC[C@H]1C[C@@H]2[C@@H](O)c1ccnc2ccc(OC)cc12 [Quinidine],<0.1
17,Cc1ccc(C)c(OCCCC(C)(C)C(=O)O)c1 [Gemfibrozil],<0.1
18,CN[C@@H](C)[C@H](O)c1ccccc1 [(L)-Ephedrine],<0.1
19,O=C(O)c1cc(O)ccc1O [Gentisic Acid],<0.1
20,CC(N)C(O)c1ccccc1 (centres unmarked) [Phenylpropanolamine],<0.1
21,CCN(CC)CC(=O)Nc1c(C)cccc1C [Lidocaine],<0.1
22,CN(C)CCCN1c2ccccc2Sc2ccc(Cl)cc21 [Chlorpromazine],<0.1
23,COC(=O)[C@@H]1[C@H]2CC[C@@H](C[C@@H]1O)N2C [Ecgonine Methyl Ester],<0.1
24,CN1C(=O)CC[C@H]1c1cccnc1 [(−)-Cotinine],<0.1
25,Cc1cc(CC(=O)O)n(C)c1C(=O)c1ccc(Cl)cc1 [Zomepirac],<0.1
26,CCN(CC)CCNC(=O)c1ccc(N)cc1 [Procainamide],<0.1
27,CNC[C@H](O)c1cccc(O)c1 [Phenylephrine],<0.1
28,CC(=O)Oc1ccccc1C(=O)O [Acetylsalicylic Acid],<0.1
29,CCC1(CCC(C)C)C(=O)NC(=O)NC1=O [Amobarbital],<0.1
